Measured values from the supplement of paper PMC10307832.

Assays:
Assay in all cases: relative viability (nuclei count vs DMSO), 5 days (fraction); higher = more cells survive
[1] = compound: C=CCc1cccc(/C=N/NC(=O)CN2CCN(Cc3ccccc3)CC2)c1O [PAC-1] + NC(=O)Nc1cc(-c2cccc(F)c2)sc1C(=O)N[C@H]1CCCNC1 [AZD7762] (partner 0.2 µM)
Outline: (§1)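 One day after seeding in 1536-well plates, lung cancer cell lines were dosed by pin tool. Dosing was either single-drug or a fixed anchor-drug dose plus five library-drug doses (not always all listed) in √10 steps. After 5 days, nuclei were stained in one fix-and-stain step and counted on 4× images, and relative viability is the nuclei count of treated wells over that of vehicle wells, given as the median of duplicate plates.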

[2] = compound: C=CC(=O)Nc1cc(-n2c(=O)ccc3cnc4ccc(-c5ccc(NS(C)(=O)=O)cc5)cc4c32)ccc1C [BMX-IN-1] + C[C@]1(O)C[C@@H](c2nc(-c3ccc4ccc(-c5ccccc5)nc4c3)c3c(N)nccn32)C1 [Linsitinib] (partner 1 µM)
Outline: as §1

[3] = compound: C=CCc1cccc(/C=N/NC(=O)CN2CCN(Cc3ccccc3)CC2)c1O [PAC-1] + Nc1nc2[nH]cc(CCc3ccc(C(=O)N[C@@H](CCC(=O)O)C(=O)O)cc3)c2c(=O)[nH]1 [Pemetrexed] (partner 0.2 µM)
Outline: as §1

[4] = compound: C=CCc1cccc(/C=N/NC(=O)CN2CCN(Cc3ccccc3)CC2)c1O [PAC-1] + COc1cccc2cc(-c3nc([C@H]4CC[C@H](C(=O)O)CC4)n4ncnc(N)c34)[nH]c12 [OSI-027] (partner 0.5 µM)
Outline: as §1

[5] = compound: C=CCc1cccc(/C=N/NC(=O)CN2CCN(Cc3ccccc3)CC2)c1O [PAC-1] + CCNC(=O)c1noc(-c2cc(C(C)C)c(O)cc2O)c1-c1ccc(CN2CCOCC2)cc1 [Luminespib] (partner 0.01 µM)
Outline: as §1

| Cell Line | relative viability ([1]; first compound 0.02 µM) | relative viability ([1]; first compound 0.06325 µM) | relative viability ([1]; first compound 0.2 µM) | relative viability ([1]; first compound 2 µM) | relative viability ([2]; first compound 0.02 µM) | relative viability ([2]; first compound 0.2 µM) | relative viability ([2]; first compound 0.6325 µM) | relative viability ([2]; first compound 2 µM) | relative viability ([3]; first compound 0.02 µM) | relative viability ([3]; first compound 0.06325 µM) | relative viability ([3]; first compound 0.2 µM) | relative viability ([3]; first compound 2 µM) | relative viability ([4]; first compound 0.02 µM) | relative viability ([4]; first compound 0.06325 µM) | relative viability ([4]; first compound 0.2 µM) | relative viability ([4]; first compound 2 µM) | relative viability ([5]; first compound 0.02 µM) | relative viability ([5]; first compound 0.06325 µM) | relative viability ([5]; first compound 0.2 µM) | relative viability ([5]; first compound 2 µM) |
| --- | --- | --- | --- | --- | --- | --- | --- | --- | --- | --- | --- | --- | --- | --- | --- | --- | --- | --- | --- | --- |
| HCC-366 | 0.265 | 0.309 | 0.251 | 0.312 | 0.779 | 0.995 | 0.736 | 0.601 | 0.176 | 0.162 | 0.159 | 0.164 | 0.946 | 0.863 | 0.894 | 1.26 | – | – | – | – |
| HCC-827 | 0.239 | 0.191 | 0.235 | 0.237 | 1.05 | 1.01 | 0.999 | 0.969 | 0.275 | 0.259 | 0.256 | 0.256 | 0.763 | 0.692 | 0.703 | 0.792 | 0.634 | 0.465 | 0.649 | 0.609 |
| IA-LM | – | – | – | – | 0.701 | 0.674 | 0.47 | 0.6 | – | – | – | – | – | – | – | – | – | – | – | – |
| NCI-H520 | – | – | – | – | 1.09 | 1.2 | 1.36 | 1.02 | 0.723 | 0.686 | 0.639 | 0.58 | 0.299 | 0.275 | 0.265 | 0.259 | 0.269 | 0.248 | 0.252 | 0.216 |
| NCI-H522 | 0.886 | 0.69 | 0.799 | 0.891 | – | – | – | – | 0.945 | 0.902 | 1.08 | 0.955 | 0.673 | 0.695 | 0.737 | 0.691 | 1.15 | 1.06 | 0.975 | 1.17 |
| NCI-H661 | – | – | – | – | 0.677 | 0.54 | 0.5 | 0.685 | 0.906 | 0.877 | 0.88 | 0.882 | 0.631 | 0.747 | 0.785 | 0.577 | 0.951 | 0.882 | 0.821 | 0.736 |
| NCI-H727 | 0.547 | 0.615 | 0.671 | 0.711 | 0.325 | 0.393 | 0.261 | 0.27 | – | – | – | – | 0.641 | 0.689 | 0.619 | 0.622 | 0.255 | 0.371 | 0.639 | 0.315 |
| NCI-H1299 | – | – | – | – | 1.2 | 0.986 | 1.13 | 1.12 | – | – | – | – | – | – | – | – | – | – | – | – |
| NCI-H1563 | – | – | – | – | 1.16 | 1.33 | 1.16 | 1.18 | 0.787 | 0.746 | 0.776 | 0.949 | 0.757 | 0.814 | 0.742 | 0.753 | 0.49 | 0.542 | 0.505 | 0.511 |
| NCI-H1623 | – | – | – | – | – | – | – | – | – | – | – | – | 0.455 | 0.446 | 0.442 | 0.448 | 0.465 | 0.473 | 0.515 | 0.499 |
| NCI-H1648 | 0.604 | 0.898 | 0.73 | 0.66 | – | – | – | – | 0.676 | 0.838 | 0.81 | 0.646 | 0.239 | 0.264 | 0.27 | 0.317 | – | – | – | – |
| NCI-H1650 | – | – | – | – | – | – | – | – | 0.365 | 0.387 | 0.321 | 0.387 | 0.569 | 0.614 | 0.55 | 0.612 | 0.191 | 0.199 | 0.209 | 0.191 |
| NCI-H1703 | 0.148 | 0.128 | 0.143 | 0.124 | 0.945 | 0.666 | 0.712 | 0.746 | – | – | – | – | – | – | – | – | – | – | – | – |
| NCI-H2009 | – | – | – | – | 1.27 | 1.27 | 1.29 | 1.2 | 1.03 | 0.989 | 1.1 | 0.989 | 0.645 | 0.614 | 0.582 | 0.669 | 1.01 | 1.04 | 1.03 | 1.01 |
| NCI-H2023 | – | – | – | – | 0.798 | 0.695 | 0.769 | 0.726 | 0.211 | 0.215 | 0.244 | 0.229 | 0.429 | 0.404 | 0.333 | 0.357 | 0.741 | 0.703 | 0.667 | 0.444 |
| NCI-H2170 | 0.874 | 0.856 | 0.928 | 0.846 | – | – | – | – | 0.259 | 0.252 | 0.257 | 0.278 | 0.701 | 0.631 | 0.784 | 0.645 | 0.64 | 0.607 | 0.542 | 0.606 |
| NCI-H2228 | – | – | – | – | 0.969 | 0.907 | 0.848 | 0.648 | 0.344 | 0.361 | 0.325 | 0.346 | 0.543 | 0.513 | 0.512 | 0.564 | 0.16 | 0.146 | 0.162 | 0.182 |
| NCI-H2342 | 0.56 | 0.383 | 0.395 | 0.666 | – | – | – | – | 0.851 | 0.754 | 0.727 | 0.781 | 0.653 | 0.574 | 0.65 | 0.682 | 0.655 | 0.82 | 0.759 | 0.777 |
| SK-LU-1 | – | – | – | – | 1.3 | 1.15 | 1.21 | 1.09 | 0.944 | 1.02 | 0.915 | 0.99 | 0.338 | 0.363 | 0.287 | 0.326 | 0.216 | 0.375 | 0.223 | 0.191 |
| SW 900 | – | 0.744 | 0.637 | 0.678 | – | – | – | – | – | 0.456 | 0.456 | 0.531 | 0.69 | 0.828 | 0.572 | 0.496 | 0.173 | 0.157 | 0.16 | 0.214 |
| SW 1573 | – | – | – | – | 0.709 | 0.864 | 0.825 | 0.771 | 0.831 | 0.778 | 0.83 | 0.855 | 0.642 | 0.613 | 0.606 | 0.791 | 0.214 | 0.175 | 0.223 | 0.371 |
| UMC-11 | – | – | – | – | 1.1 | 1.23 | 1.13 | 0.998 | 0.78 | 0.791 | 0.802 | 0.79 | 0.546 | 0.459 | 0.461 | 0.472 | 1.05 | 0.986 | 1.04 | 0.928 |
